Experimental data: patent publication US7291486B2, “Genetically modified cells and methods for converting (R)-methylmalonyl CoA to (S)-methylmalonyl CoA” (KOSAN Biosciences, Inc., priority 1999, dated 2007)

Key:
[1] = Stability of acyl-CoAs in TCA and mutase assay buffer (HPLC); format: physicochemical; conditions: mutase assay conditions, 30° C.
Procedure: To test whether acyl-CoAs degrade in TCA, the following tests were conducted. The CoA mix consisted of 1.6 mM each of malonyl-, methylmalonyl-, succinyl-, acetyl-, and propionyl-CoA, plus 0.5 mM CoA. An aliquot (10 μL) of this mix was added to 100 μL 10% TCA, 50 μL were immediately injected to the HPLC for CoA analysis, and the remainder was promptly frozen on dry ice. The frozen portion was then thawed and loaded immediately to the HPLC. Again, 10 μL of the CoA mix were added to 100 μL 10% TCA, 50 μL were left on ice for 15 minutes and then injected to the HPLC, the remainder was left at 4° C. overnight and injected to the HPLC the next morning. The area under each CoA peak was noted. This same procedure was followed but using a mixture of TCA and buffer A from the mutase assay.
The CoA analysis described here is carried out on cells which are lysed in 10% TCA. […] Thus, the CoAs are stable in TCA and in the mutase assay buffer after the cells are lysed or after the assays are completed, and prior to HPLC analysis.
Although the CoAs are stable in TCA and buffer at 4° C., they degraded at 30° C., the temperature at which the mutase assay was performed. In five minutes under the assay conditions, about 4% of the methylmalonyl-CoA hydrolyzed to CoA. […] Thus, the mutase assay is suboptimal for extremely quantitative results.

[2] = Spontaneous chemical epimerization between (R)- and (S)-mm-CoA; format: physicochemical; conditions: in 15 minutes
[3] = Epimerase assay coupled to transcarboxylase and malate dehydrogenase, crude E. coli extracts; format: biochemical; conditions: 30° C.
Procedure: Cells of strain BL2] (DE3) containing pET-epsherm, pET-epcoel, pET-epsub, or a control pET vector were grown overnight at 37° C. in 2 mL LB containing 100 μg/ml carbenicillin. The starter culture (250 μL) was used to inoculate 25 mL LB containing 100 μg/ml carbenicillin. The cultures were grown at 37° C. to an OD of approximately 0.4, then induced with IPTG to 1 mM final concentration and grown for an additional 3 hours at 30° C. The cells were collected by centrifugation at 4000 rpm for 10 minutes, and the pellets were stored at −80° C. prior to assay. […]
Epimerase activity was measured in crude extracts of E. coli harboring either pET-epsherm, pET-epcoel, pET-epsub, or a control pET vector. The epimerase assay couples transcarboxylase, which converts (S)-methylmalonyl-CoA into propionyl-CoA, to malate dehydrogenase, which converts NADH into NAD^+, producing a decrease in absorbance at 340 nm. […] When an extract containing epimerase is added to the assay, the (R)-isomer is converted to (S)—, resulting in a further decrease in absorbance. […]
The pellet from approximately 20 mL of culture was thawed and resuspended in 2 mL 1X assay buffer containing a protease inhibitor cocktail tablet. […] The reaction was initiated with (2R,2S)-methylmalonyl-CoA and the decrease in absorbance at 340 nm was monitored, reflecting the disappearance of the 2S isomer. […]

CC(C)(COP(=O)(O)OP(=O)(O)OC[C@H]1O[C@@H](n2cnc3c(N)ncnc32)[C@H](O)[C@@H]1OP(=O)(O)O)[C@@H](O)C(=O)NCCC(=O)NCCSC(=O)CCC(=O)O [succinyl-CoA]
rate of hydrolysis relative to methylmalonyl-CoA [1]: comparable rate

CC(C(=O)O)C(=O)SCCNC(=O)CCNC(=O)[C@H](O)C(C)(C)COP(=O)(O)OP(=O)(O)OC[C@H]1O[C@@H](n2cnc3c(N)ncnc32)[C@H](O)[C@@H]1OP(=O)(O)O (stereo partly shown) [methylmalonyl-CoA]
hydrolyzed to CoA ([1]; five minutes): about 4% | spontaneous chemical epimerization between (R)- and (S)-mm-CoA [2]: approximately 3%

B1: P. shermanii epimerase: methylmalonyl-CoA epimerase from Propionibacterium shermanii expressed in E. coli, SEQ ID NO: 2 (protein)
chain: MSNEDLFICIDHVAYACPDADEASKYYQETFGWHELHREENPEQGVVEIMMAPAAKLTEHMTQVQVMAPLNDESTVAKWLAKHNGRAGLHHMAWRVDDIDAVSATLRERGVQLLYDEPKLGTGGNRINFMHPKSGKGVLIELTQYPKN
modifications: Deduced amino acid sequence of the epimerase gene sequence
specific activity [3]: approximately 30 units/mg
